In one test the test system is KB. Kind of test: Cytotoxicity against human KB cells. It is filed as functional, cell-based.
The test system of a further test is P388. Kind of test: Cytotoxicity against mouse P388 cells. In kind it is functional, cell-based.

Active and inactive are the calls of the source. The rule behind the calls is not given here.

The text below walks through data of ChEMBL document CHEMBL1150758, “Heyneanine hydroxyindolenine, a new indole alkaloid from Ervatamia coronaria var. plena” (J Nat Prod, 1988).

On to `COC(=O)[C@@]12C[C@@H]3C[C@H]([C@H](C)O)[C@@H]1N(CC[C@]1(O)C2=Nc2ccccc21)C3`, for which the result in the test on KB and with P388 was inactive.
For `COC(=O)[C@@]12C[C@@H]3C[C@H]([C@H](C)O)[C@@H]1N(CC[C@]1(O)C2=Nc2ccc(OC)cc21)C3`, the outcome in the test with KB and in the test on P388 was inactive.
`CC[C@H]1C[C@H]2C[C@@]3(C(=O)OC)c4[nH]c5ccccc5c4CCN(C2=O)[C@@H]13`: the result in the test with KB and in the test with P388 was inactive.
In the case of `CC[C@H]1C[C@@H]2CN3CC[C@]4(O)C(=Nc5ccc(OC)cc54)[C@](C(=O)OC)(C2)[C@H]13`, the result with KB and in the test on P388 was inactive.
As to `CC[C@H]1C[C@@H]2CN3CC[C@]4(O)C(=Nc5ccccc54)[C@](C(=O)OC)(C2)[C@H]13`, the outcome in the test on KB and in the test with P388 was inactive.
